# Several values for one entry are separate records, joined by “and”; a condition that tells them apart may be missing. Equal values may be shown once.
# Experiments:
# [1] = test system: NHBE; experiment: MTT assay, growth inhibition / viability of normal HBE cells; settings: for Avg. % con / MTT value, mean of replicates (unheaded line) / MTT value, replicate (unheaded line): NHBE, 3 days
# Protocol: Cells and Cell Cultures. […] Normal HBE (NHBE) cells were purchased from Clontech (Palo Alto, Calif.). […] Cells were grown on tissue culture plasticware (Falcon; Bector, Dickinson, Bedford, Mass.) at 37° C. in a humidified atmosphere with 5% C02. For the analyses of growth inhibition, cell cycle, and induction of apoptosis by deguelin, NHBE cells, HBE cell lines, and squamous HBE cells were cultured in KSFM (Life Technologies) containing 2 μg/ml of EGF and bovine pitutary extract.
# Cell Treatment with Deguelin and Determination of Growth Inhibition. To measure the effects of deguelin on cell proliferation, NHBE, 1799 cells, 1198 cells, and 1170 cells were transferred onto 96-well plates at densities ranging from 2×10^3 to 4×10^3 cells/well. After 1 day, the cells were changed to the fresh medium containing various concentrations of deguelin dissolved in DMSO (final concentration, 0.1%). Control cultures received 0.1% dimethyl sulfoxide (DMSO) as did the deguelin-treated cultures. […] After 1 day of infection, cells were treated with 10^−7 M or 10^−6 M of deguelin, or 0.1% DMSO as a control, and then incubated for 2 days. […] Six replicate wells were used for each analysis.
# [2] = test system: 1799 cells; experiment: Cell cycle analysis by flow cytometry (propidium iodide); type: cell-based; settings: 3 days
# Protocol: (§1) Cell Cycle Analysis. Cells were plated on 10-cm dishes 1 day before treatment. After treatment with deguelin for 3 days, floating and adherent cells were harvested by trypsinization, fixed with 1% paraformaldehyde and 70% ethanol, stained with propidium iodide PI), and subjected to flow cytomnetric analysis to determine the percentages of cells in specific phases of the cell cycle (G1, S, and G2/M) as described previously (Sun et al., 1997).
# [3] = test system: NHBE cells; experiment: as above; type: cell-based; settings: 3 days
# Protocol: as §1
# [4] = test system: H661; experiment: MTT assay, growth inhibition by deguelin or deguelin derivatives; type: cell-based; settings: 3 days
# [5] = test system: H1299; experiment: as above; type: cell-based; settings: H1299, 3 days
# [6] = test system: H1299 xenografts; experiment: NSCLC xenograft tumor growth; type: in vivo, athymic nude mice; settings: 4 mg/kg or 8 mg/kg, 5 consecutive days; measured for 15 days; vs control
# Protocol: The antitumor effect of deguelin was tested using an iii vivo model. H1299 cells were injected into the dorsal flank of athymic nude mice. Once tumor volume reached 40-80 mm^3, treatment for 5 consecutive days with 4 or 8 mg/kg deguelin began. Tumors were measured every other day for 15 days. […] The results are expressed as the mean (±SD) tumor volume (calculated from at least 5 mice) relative to the initial volume.
# [7] = test system: NSCLC cells; experiment: MTT assay, growth inhibition of NSCLC cells by deguelin and deguelin derivatives (Table 2, FIG. 7); type: cell-based; settings: 72 h, depending on the cell line, 3 days
# [8] = test system: NHBE cells; experiment: Apoptosis assay (TUNEL; DNA fragmentation); type: cell-based
# Protocol: Apoptosis assay. Normal, premalignant, and malignant HBE cells were exposed to v various doses of deguelin for 3 days. […] Both adherent and floating cells were combined for the assessment of apoptosis using the APO-BRDU staining kit (Phoenix Flow Systems, San Diego, Calif.). Briefly, floating and attached cells dispersed with trypsin-EDTA were pelleted, washed, and fixed by 1% paraformaldehyde followed by 70% ethanol. The fixed cells were washed and incubated with DNA-labeling solution containing terminal deoxynucleotidyl transferase (TdT) reaction buffer, TdT enzyme, and bromodeoxyuridine triphosphate (Br-dUTP). Cells were rinsed, resuspended with fluorescein-PRB-I antibody solution, and analyzed by flow cytometry in the presence of PI/RNase solution. […] A dual display of DNA area (linear red fluorescence) and Br-dUTP incorporation (FITC-PRB-1) was used to determine the percentage of apoptotic cells.
# (§2) The percentage of dead cells was determined by fluorescent-activated cell sorting (FACS) analysis of PI-stained nuclei. Apoptosis was also determined by the detection of nucleosomal DNA fragmentation, which was measured using the TACS apoptotic DNA Jaddering kit (Trevigen, Inc., Gaithersburg, Md.) according to the manufacturer's protocol. […] Apoptosis was analyzed using the APO-BRDU staining kit (Phoenix Flow Systems) as described above.
# [9] = test system: H226Br; experiment: MTT assay, growth inhibition by deguelin or deguelin derivatives; type: cell-based; settings: 3 days
# [10] = test system: 1799 cells; experiment: Apoptosis assay (TUNEL, APO-BRDU kit, flow cytometry; DNA fragmentation); type: cell-based; settings: for apoptosis in 1799 cells (TUNEL, flow cytometry): 3 days
# Protocol: Apoptosis assay. Normal, premalignant, and malignant HBE cells were exposed to v various doses of deguelin for 3 days. […] Both adherent and floating cells were combined for the assessment of apoptosis using the APO-BRDU staining kit (Phoenix Flow Systems, San Diego, Calif.). Briefly, floating and attached cells dispersed with trypsin-EDTA were pelleted, washed, and fixed by 1% paraformaldehyde followed by 70% ethanol. The fixed cells were washed and incubated with DNA-labeling solution containing terminal deoxynucleotidyl transferase (TdT) reaction buffer, TdT enzyme, and bromodeoxyuridine triphosphate (Br-dUTP). Cells were rinsed, resuspended with fluorescein-PRB-I antibody solution, and analyzed by flow cytometry in the presence of PI/RNase solution. All analyses were performed based on 3000 to 10,000 events using a FACScan flow cytometer (Becton Dickinson, San Jose, Calif.) equipped with a 488-nm argon ion laser and CellQuest software. A dual display of DNA area (linear red fluorescence) and Br-dUTP incorporation (FITC-PRB-1) was used to determine the percentage of apoptotic cells.
# as §2
# [11] = test system: H441; experiment: MTT assay, growth inhibition by deguelin or deguelin derivatives; type: cell-based; settings: 3 days
# [12] = test system: H358; experiment: as above; type: cell-based; settings: H358, 3 days
smiles,measurement,setting,value
COc1cc2c(cc1OC)[C@@H]1C(=O)c3ccc4c(c3O[C@@H]1CO2)C=CC(C)(C)O4 [Deguelin],effect on NHBE viability,"[1]; MTT assay, 10^−9 M to 10^−7 M, up to 3 days",minimal effect
same,Avg. % con,[1]; deguelin 10^−6M,0.23 % con
same,"MTT value, mean of replicates (unheaded line)",[1]; deguelin 10^−6M,0.099
same,"MTT value, replicate (unheaded line)",[1]; deguelin 10^−6M,0.129 and 0.082 and 0.087
same,Avg. % con,[1]; deguelin 10^−8M,0.53 % con
same,"MTT value, mean of replicates (unheaded line)",[1]; deguelin 10^−8M,0.229
same,"MTT value, replicate (unheaded line)",[1]; deguelin 10^−8M,0.249 and 0.227 and 0.21
same,Avg. % con,[1]; deguelin 10^−10M,0.81 % con
same,"MTT value, mean of replicates (unheaded line)",[1]; deguelin 10^−10M,0.347
same,"MTT value, replicate (unheaded line)",[1]; deguelin 10^−10M,0.355 and 0.341 and 0.346
same,Avg. % con,[1]; deguelin 10^−12M,0.90 % con
same,"MTT value, mean of replicates (unheaded line)",[1]; deguelin 10^−12M,0.386
same,"MTT value, replicate (unheaded line)",[1]; deguelin 10^−12M,0.417 and 0.365 and 0.377
same,1799 cells accumulated at the G2/M phase,[2]; 10^−7 M deguelin,40.2%
same,1799 cells accumulated at the G2/M phase,[2]; 10^−8 M deguelin,17.3%
same,change in NHBE cell cycle,[3],did not induce detectable change
same,Avg. % con,[4]; deguelin 10^−6M,0.5756 % con
same,"MTT value, mean of replicates (unheaded line)",[4]; deguelin 10^−6M,0.0597
same,"MTT value, replicate (unheaded line)",[4]; deguelin 10^−6M,0.059 and 0.055 and 0.065
same,Avg. % con,[4]; deguelin 10^−8M,0.60 % con
same,"MTT value, mean of replicates (unheaded line)",[4]; deguelin 10^−8M,0.063
same,"MTT value, replicate (unheaded line)",[4]; deguelin 10^−8M,0.062 and 0.056 and 0.07
same,Avg. % con,[4]; deguelin 10^−10M,0.80 % con
same,"MTT value, mean of replicates (unheaded line)",[4]; deguelin 10^−10M,0.083
same,"MTT value, replicate (unheaded line)",[4]; deguelin 10^−10M,0.087 and 0.093 and 0.07
same,Avg. % con,[4]; deguelin 10^−12M,0.86 % con
same,"MTT value, mean of replicates (unheaded line)",[4]; deguelin 10^−12M,0.089
same,"MTT value, replicate (unheaded line)",[4]; deguelin 10^−12M,0.09 and 0.084 and 0.094
same,Avg. % con,[5]; deguelin 10^−6M,0.36 % con
same,"MTT value, mean of replicates (unheaded line)",[5]; deguelin 10^−6M,0.048
same,"MTT value, replicate (unheaded line)",[5]; deguelin 10^−6M,0.052 and 0.043 and 0.049
same,Avg. % con,[5]; deguelin 10^−8M,0.78 % con
same,"MTT value, mean of replicates (unheaded line)",[5]; deguelin 10^−8M,0.104
same,"MTT value, replicate (unheaded line)",[5]; deguelin 10^−8M,0.101 and 0.108 and 0.103
same,Avg. % con,[5]; deguelin 10^−10M,0.73 % con
same,"MTT value, mean of replicates (unheaded line)",[5]; deguelin 10^−10M,0.098
same,"MTT value, replicate (unheaded line)",[5]; deguelin 10^−10M,0.119 and 0.087 and 0.089
same,Avg. % con,[5]; deguelin 10^−12M,0.98 % con
same,"MTT value, mean of replicates (unheaded line)",[5]; deguelin 10^−12M,0.132
same,"MTT value, replicate (unheaded line)",[5]; deguelin 10^−12M,0.121 and 0.136 and 0.138
same,growth of NSCLC xenografts (tumor volume relative to initial volume),[6],inhibited
same,IC50,[7],100 to 1000 nM
same,TUNEL and DNA fragmentation in NHBE cells,[8],neither TUNEL-positive cell population nor DNA fragmentation
same,Av. % con,[9]; deguelin 10^−6M,0.82 % con
same,"MTT value, mean of replicates (unheaded line)",[9]; deguelin 10^−6M,0.266
same,"MTT value, replicate (unheaded line)",[9]; deguelin 10^−6M,0.264 (2×) and 0.271
same,Av. % con,[9]; deguelin 10^−8M,0.85 % con
same,"MTT value, mean of replicates (unheaded line)",[9]; deguelin 10^−8M,0.276
same,"MTT value, replicate (unheaded line)",[9]; deguelin 10^−8M,0.296 and 0.273 and 0.259
same,Av. % con,[9]; deguelin 10^−10M,1.02 % con
same,"MTT value, mean of replicates (unheaded line)",[9]; deguelin 10^−10M,0.330
same,"MTT value, replicate (unheaded line)",[9]; deguelin 10^−10M,0.321 and 0.329 and 0.34
same,Av. % con,[9]; deguelin 10^−12M,0.96 % con
same,"MTT value, mean of replicates (unheaded line)",[9]; deguelin 10^−12M,0.310
same,"MTT value, replicate (unheaded line)",[9]; deguelin 10^−12M,0.3 and 0.318 and 0.313
same,"induction of apoptosis, Ad5CMV-Myr.Akt.HA-infected 1799 cells","[10]; 10^−7 M deguelin, 2 days",less than 10%
same,"induction of apoptosis, uninfected or empty virus-infected 1799 cells","[10]; 10^−7 M deguelin, 2 days",About 40%
same,"apoptosis in 1799 cells (TUNEL, flow cytometry)",[10]; 10^−7 M deguelin,more than 90%
same,"apoptosis in 1799 cells (TUNEL, flow cytometry)",[10]; 10^−8 M deguelin,68.5%
same,DNA fragmentation in 1799 cells,"[10]; three days of treatment, dose-dependent",induced the generation of nucleosomal-sized ladders of DNA fragments
same,Avg. % con,[11]; deguelin 10^−6M,0.82 % con
same,"MTT value, mean of replicates (unheaded line)",[11]; deguelin 10^−6M,0.181
same,"MTT value, replicate (unheaded line)",[11]; deguelin 10^−6M,0.18 (2×) and 0.183
same,Avg. % con,[11]; deguelin 10^−8M,0.94 % con
same,"MTT value, mean of replicates (unheaded line)",[11]; deguelin 10^−8M,0.207
same,"MTT value, replicate (unheaded line)",[11]; deguelin 10^−8M,0.209 and 0.203 and 0.21
same,Avg. % con,[11]; deguelin 10^−10M,1.01 % con
same,"MTT value, mean of replicates (unheaded line)",[11]; deguelin 10^−10M,0.223
same,"MTT value, replicate (unheaded line)",[11]; deguelin 10^−10M,0.21 and 0.231 and 0.229
same,Avg. % con,[11]; deguelin 10^−12M,1.12 % con
same,"MTT value, mean of replicates (unheaded line)",[11]; deguelin 10^−12M,0.247
same,"MTT value, replicate (unheaded line)",[11]; deguelin 10^−12M,0.234 and 0.259 and 0.249
same,Avg. % con,[12]; deguelin 10^−6M,0.68 % con
same,"MTT value, mean of replicates (unheaded line)",[12]; deguelin 10^−6M,0.111
same,"MTT value, replicate (unheaded line)",[12]; deguelin 10^−6M,0.108 and 0.113 and 0.112
same,Avg. % con,[12]; deguelin 10^−8M,0.74 % con
same,"MTT value, mean of replicates (unheaded line)",[12]; deguelin 10^−8M,0.122
same,"MTT value, replicate (unheaded line)",[12]; deguelin 10^−8M,0.114 and 0.128 and 0.125
same,Avg. % con,[12]; deguelin 10^−10M,0.79 % con
same,"MTT value, mean of replicates (unheaded line)",[12]; deguelin 10^−10M,0.129
same,"MTT value, replicate (unheaded line)",[12]; deguelin 10^−10M,0.122 and 0.12 and 0.146
same,Avg. % con,[12]; deguelin 10^−12M,0.87 % con
same,"MTT value, mean of replicates (unheaded line)",[12]; deguelin 10^−12M,0.143
same,"MTT value, replicate (unheaded line)",[12]; deguelin 10^−12M,0.148 and 0.143 and 0.139

# Source: patent publication US20060128792A1, “Deguelin as a chemopreventive agent for lung cancer” (priority 2002, published 2006)
